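Assay format: 96-well plates, 48-hour exposure. Abbreviation: GI50, concentration required for 50% inhibition of growth.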 Active and inactive are the calls of the source. Rule as the data show it: active = GI50 up to about 1.1 µM and inactive = higher.
Tests used:
Assay in all cases: NCI-60 cell line screen, 48 h
[1] = test system: SNB-75
[2] = test system: SK-OV-3
[3] = test system: SF-268
[4] = test system: MDA-MB-435
[5] = test system: UO-31
[6] = test system: OVCAR-8
[7] = test system: UACC-62
[8] = test system: NCI-H522
[9] = test system: NCI/ADR-RES
[10] = test system: KM12
[11] = test system: NCI-H23
[12] = test system: OVCAR-3
[13] = test system: BT-549
[14] = test system: SK-MEL-5
[15] = test system: RXF 393
[16] = test system: MDA-MB-231
[17] = test system: ACHN
[18] = test system: A498
[19] = test system: SW-620
[20] = test system: OVCAR-5
[21] = test system: DU-145
[22] = test system: MCF7
[23] = test system: SN12C
[24] = test system: MDA-N
[25] = test system: TK-10
[26] = test system: HCC 2998
[27] = test system: HOP-92
[28] = test system: SR
[29] = test system: SK-MEL-28
[30] = test system: SK-MEL-2
[31] = test system: CCRF-CEM
[32] = test system: SNB-19
[33] = test system: Hs-578T
[34] = test system: 786-0
[35] = test system: RPMI-8226
[36] = test system: COLO 205
[37] = test system: PC-3
[38] = test system: Malme-3M
[39] = test system: SF-295
[40] = test system: A549
[41] = test system: IGROV-1
[42] = test system: HCT-15
[43] = test system: SF-539
[44] = test system: MOLT-4
[45] = test system: UACC-257
[46] = test system: LOX IMVI
[47] = test system: T47D
[48] = test system: U-251
[49] = test system: K562
[50] = test system: HT-29
[51] = test system: NCI-H460
[52] = test system: CAKI-1
[53] = test system: EKVX
[54] = test system: NCI-H226
[55] = test system: HL-60
[56] = test system: HCT-116
[57] = test system: M14
[58] = test system: HOP-62
[59] = test system: OVCAR-4

`C=C(C)CNCC(=C)C.Oc1c(Cl)c(Cl)c(Cl)c(Cl)c1Cl` was tested, and the GI50 [1] was 16.6 µM (inactive), the GI50 [2] was 43.4 µM (inactive) and the GI50 [3] was 33.9 µM (inactive). The GI50 [4] was 23.7 µM (inactive), the GI50 [5] was 15.7 µM (inactive) and the GI50 [6] was 31.9 µM (inactive). The GI50 [7] was 18.7 µM (inactive), the GI50 [8] was 22 µM (inactive) and the GI50 [9] was 23.8 µM (inactive). For the same compound, the GI50 [10] was 20.4 µM (inactive), the GI50 [11] was 22.3 µM (inactive) and the GI50 [12] was 11 µM (inactive). The GI50 [13] was 25.4 µM (inactive), the GI50 [14] was 16.4 µM (inactive) and the GI50 [15] was 20 µM (inactive). The GI50 [16] was 15.5 µM (inactive), the GI50 [17] was 21.6 µM (inactive) and the GI50 [18] was 20.4 µM (inactive). The GI50 [19] was 31.1 µM (inactive), the GI50 [20] was 17.1 µM (inactive) and the GI50 [21] was 15.2 µM (inactive). The GI50 [22] was 26.6 µM (inactive), the GI50 [23] was 20.2 µM (inactive) and the GI50 [24] was 18.7 µM (inactive). For the same compound, the GI50 [25] was > 100 µM (inactive), the GI50 [26] was > 100 µM (inactive) and the GI50 [27] was 24.4 µM (inactive). For the same compound, the GI50 [28] was 26.6 µM (inactive), the GI50 [29] was 28.2 µM (inactive) and the GI50 [30] was 17.7 µM (inactive). The GI50 [31] was 26.4 µM (inactive), the GI50 [32] was 32.1 µM (inactive) and the GI50 [33] was 35.6 µM (inactive). The GI50 [34] was 19.4 µM (inactive), the GI50 [35] was 20.8 µM (inactive) and the GI50 [36] was 22.7 µM (inactive). For the same compound, the GI50 [37] was 22.8 µM (inactive), the GI50 [38] was 17.4 µM (inactive) and the GI50 [39] was 16.5 µM (inactive). For the same compound, the GI50 [40] was 27.9 µM (inactive), the GI50 [41] was 22.1 µM (inactive) and the GI50 [42] was 20.9 µM. For the same compound, the GI50 [43] was 17.6 µM (inactive), the GI50 [44] was 20.1 µM (inactive) and the GI50 [45] was > 100 µM (inactive). The GI50 [46] was 22.3 µM (inactive), the GI50 [47] was 18.2 µM (inactive) and the GI50 [48] was 17.9 µM (inactive). For the same compound, the GI50 [49] was 32.4 µM (inactive), the GI50 [50] was 20.1 µM (inactive) and the GI50 [51] was > 100 µM (inactive). For the same compound, the GI50 [52] was 21.4 µM (inactive), the GI50 [53] was 17.9 µM (inactive) and the GI50 [54] was 13.9 µM (inactive). For the same compound, the GI50 [55] was 3.15 µM (inactive), the GI50 [56] was 16.4 µM (inactive) and the GI50 [57] was 26.7 µM (inactive). For the same compound, the GI50 [58] was 22 µM (inactive) and the GI50 [59] was 23.5 µM (inactive).
With `COc1ccc2nc3ccc(OC)cc3c(SCCO)c2c1` the GI50 [1] was 28.6 µM (inactive), the GI50 [2] was 54.5 µM (inactive) and the GI50 [3] was 25.2 µM (inactive). For the same compound, the GI50 [4] was 21.5 µM (inactive), the GI50 [5] was 29.3 µM (inactive) and the GI50 [6] was 17 µM (inactive). For the same compound, the GI50 [7] was 38.5 µM (inactive), the GI50 [8] was 4.56 µM (inactive) and the GI50 [9] was 27 µM (inactive). For the same compound, the GI50 [10] was 22.5 µM (inactive), the GI50 [11] was 16.2 µM (inactive) and the GI50 [12] was 36 µM (inactive). For the same compound, the GI50 [13] was 31.3 µM (inactive), the GI50 [14] was 32.1 µM (inactive) and the GI50 [15] was 12.6 µM (inactive). The GI50 [16] was 34.7 µM (inactive), the GI50 [17] was 23.7 µM (inactive) and the GI50 [18] was > 58.1 µM (inactive). The GI50 [19] was 28.4 µM (inactive), the GI50 [20] was > 100 µM (inactive) and the GI50 [21] was 5.65 µM (inactive). The GI50 [22] was 6.01 µM (inactive), the GI50 [23] was 26.4 µM (inactive) and the GI50 [24] was 9.62 µM (inactive). The GI50 [25] was 51.3 µM (inactive), the GI50 [26] was > 75 µM (inactive) and the GI50 [27] was > 67.5 µM (inactive). The GI50 [28] was 19 µM (inactive), the GI50 [29] was 55.8 µM (inactive) and the GI50 [30] was 30 µM (inactive). For the same compound, the GI50 [31] was 3.61 µM (inactive), the GI50 [32] was > 59.7 µM (inactive) and the GI50 [33] was 15.4 µM (inactive). For the same compound, the GI50 [34] was 14.4 µM (inactive), the GI50 [35] was 12.3 µM (inactive) and the GI50 [36] was 23.6 µM (inactive). The GI50 [37] was 27.4 µM (inactive), the GI50 [38] was 15.6 µM (inactive) and the GI50 [39] was 49.2 µM (inactive). For the same compound, the GI50 [40] was > 78.7 µM (inactive), the GI50 [41] was 15 µM (inactive) and the GI50 [42] was 27.4 µM. The GI50 [43] was 20.7 µM (inactive), the GI50 [44] was 3.03 µM (inactive) and the GI50 [45] was 32.7 µM (inactive). The GI50 [46] was 8.43 µM (inactive), the GI50 [47] was 15.8 µM (inactive) and the GI50 [48] was 65 µM (inactive). For the same compound, the GI50 [49] was 9.91 µM (inactive), the GI50 [50] was 17.3 µM (inactive) and the GI50 [51] was 68.9 µM (inactive). For the same compound, the GI50 [52] was 13.4 µM (inactive), the GI50 [53] was 31.7 µM (inactive) and the GI50 [54] was > 61.7 µM (inactive). The GI50 [55] was 4.17 µM (inactive), the GI50 [56] was 15.8 µM (inactive) and the GI50 [57] was 77.3 µM (inactive). For the same compound, the GI50 [58] was > 58.9 µM (inactive) and the GI50 [59] was 63.8 µM (inactive).
`CSCCC(NC(=O)OC(C)(C)C)C(=O)NCCNc1ccc(NCCNC(=O)C(CCSC)NC(=O)OC(C)(C)C)c2c1C(=O)c1ccccc1C2=O` (configuration not stated) was tested, and the GI50 [1] was 2.37 µM (inactive), the GI50 [2] was 8.89 µM (inactive) and the GI50 [3] was 3.37 µM (inactive). For the same compound, the GI50 [4] was 2.63 µM (inactive), the GI50 [5] was > 100 µM (inactive) and the GI50 [6] was 1.96 µM (inactive). The GI50 [7] was 3.8 µM (inactive), the GI50 [8] was 1.39 µM (inactive) and the GI50 [9] was > 74.1 µM (inactive). For the same compound, the GI50 [10] was 5.77 µM (inactive), the GI50 [11] was 4.51 µM (inactive) and the GI50 [12] was 7.16 µM (inactive). The GI50 [13] was 4.43 µM (inactive), the GI50 [14] was 3.07 µM (inactive) and the GI50 [15] was 16.3 µM (inactive). The GI50 [16] was 2.83 µM (inactive), the GI50 [17] was 7.13 µM (inactive) and the GI50 [18] was 4.62 µM (inactive). For the same compound, the GI50 [19] was 2.23 µM (inactive), the GI50 [20] was 5.74 µM (inactive) and the GI50 [21] was 4.79 µM (inactive). For the same compound, the GI50 [22] was 6.01 µM (inactive), the GI50 [23] was 7.71 µM (inactive) and the GI50 [24] was 2.74 µM (inactive). The GI50 [25] was 3.38 µM (inactive), the GI50 [26] was 2.32 µM (inactive) and the GI50 [27] was 3.93 µM (inactive). For the same compound, the GI50 [28] was 2.83 µM (inactive), the GI50 [29] was 1.85 µM (inactive) and the GI50 [30] was 14.2 µM (inactive). The GI50 [31] was 3.56 µM (inactive), the GI50 [32] was 4.75 µM (inactive) and the GI50 [33] was 2.39 µM (inactive). The GI50 [34] was 5.82 µM (inactive), the GI50 [35] was 3.01 µM (inactive) and the GI50 [36] was 2.22 µM (inactive). For the same compound, the GI50 [37] was 5.31 µM (inactive), the GI50 [38] was 2.33 µM (inactive) and the GI50 [39] was 7.57 µM (inactive). The GI50 [40] was 2.84 µM (inactive), the GI50 [41] was 3.14 µM (inactive) and the GI50 [42] was > 67.6 µM. The GI50 [43] was 2.71 µM (inactive), the GI50 [44] was 3.44 µM (inactive) and the GI50 [45] was 5.65 µM (inactive). For the same compound, the GI50 [46] was 7.74 µM (inactive), the GI50 [47] was 5.21 µM (inactive) and the GI50 [48] was 2.88 µM (inactive). The GI50 [49] was 2.75 µM (inactive), the GI50 [50] was 2.64 µM (inactive) and the GI50 [51] was 5.85 µM (inactive). For the same compound, the GI50 [52] was 4.75 µM (inactive), the GI50 [53] was 8.11 µM (inactive) and the GI50 [54] was 6.76 µM (inactive). For the same compound, the GI50 [55] was 3.01 µM (inactive), the GI50 [56] was 8.71 µM (inactive) and the GI50 [57] was 3.85 µM (inactive). For the same compound, the GI50 [58] was 3.15 µM (inactive) and the GI50 [59] was 6.7 µM (inactive).

From ChEMBL document CHEMBL1201862, “PubChem BioAssay data set” (2004)
